Assay results from US20100221274A1, “METHOD OF ADMINISTERING A THYMOSIN ALPHA 1 PEPTIDE” (SCICLONE PHARMACEUTICALS, INC., priority 2001, published 2010).
Peptide text beside a SMILES is read from it.

Columns and labels:
total lymphocytes (CD3+) = assay: total lymphocyte number (CD3+ by flow cytometry) in 5-FU immune-suppressed rats, Example 2; format: in vivo
Description: (§1) 10 week old rats, weighing 250-300 g, received […] 5-FU for immune suppression.
(§2) 8 days after 5-FU treatment, rats were randomly assigned to one of the following groups (n=15): • Control (saline in minipump) • High dose TA1, injected s.c. at 3.5 mg/Kg (with empty minipumps) • Continuous infusion TA1, provided by minipump at 3.5 mg/Kg/5 days
(§3) Immune parameters were determined at baseline and 8 days after 5-FU treatment (day 1 of TA1 treatment), and also at 5 and 14 days after TA1 treatment.
(§4) The evaluations included total leukocyte number (judged by physical cytofluorimetric parameters, after verifying the specificity by monoclonal antibody), granulocytes (flow cytometry using FITC anti rat granulocyte HIS-48), total lymphocyte number (CD3+ by flow cytometry), T helper lymphocytes (CD4+ by flow cytometry), activated lymphocytes (CD25+CD3+ by flow cytometry), and cytokine expression in plasma (IL-2 and IFN-γ by ELISA).

granulocytes = granulocytes (flow cytometry, HIS-48) in 5-FU immune-suppressed rats, Example 2; format: in vivo
Description: as §1, §2, §3, §4

[1] = tested on: T helper lymphocytes (CD3+CD4+); assay: T helper lymphocytes (CD4+ by flow cytometry) in 5-FU immune-suppressed rats, Example 2; format: in vivo
Description: as §1, §2, §3, §4

total leukocyte number = assay: total white blood cell count in 5-FU immune-suppressed rats, Example 1; format: in vivo
Description: (§5) In the following examples, which are not intended to be limiting, a continuous infusion of TA1 (N-acetyl-[…]OH) (SEQ ID NO:1) was evaluated in a cancer therapy model with the use of surgically implanted osmotic minipumps, which deliver fluids at a constant flow rate for 5 days. Rats were given 5-fluorouracil (5-FU) to cause immune suppression, and then treated with injected or infused TA1 8 days later (the nadir of white cell count after 5-FU). Treatment groups, 8 rats each, were: control (minipumps with saline); low dose TA1 (0.2 mg/Kg sc injection; empty minipumps); high dose TA1 (3.5 mg/Kg sc injection; empty minipumps); and high dose infused TA1 (3.5 mg/Kg infused by minipumps). Immune parameters were determined at baseline and 8 days after 5-FU treatment (day 1 of TA1 treatment), and also at 5, 12, 20, and 27 days after TA1 treatment.
(§6) 10 week old rats, weighing 250-300 g, received 100 mg/kg 5-fluorouracil (5-FU) for immune suppression.
as §2, with “(n=8):” for “(n=15):”, “minipump) • Low dose TA1, injected s.c. at 0.2 mg/Kg (with empty minipumps)” for “minipump)”
(§7) Immune parameters were determined at baseline and 8 days after 5-FU treatment (day 1 of TA1 treatment), and also at 5, 12, 20, and 27 days after TA1 treatment.
(§8) The evaluations included NK activity (LDH released from YAC-1 cells after 4 h exposure to PBMC), total leukocyte number (judged by physical cytofluorimetric parameters, after verifying the specificity by monoclonal antibody), total lymphocyte number (CD3+ by flow cytometry), and activated lymphocytes (CD25+CD3+ by flow cytometry).

[2] = tested on: activated lymphocytes (CD3+CD25+); assay: activated lymphocytes (CD25+CD3+ by flow cytometry) in 5-FU immune-suppressed rats, Example 1; format: in vivo
Description: as §5, §6
as §2, with “(n=8):” for “(n=15):”, “minipump) • Low dose TA1, injected s.c. at 0.2 mg/Kg (with empty minipumps)” for “minipump)”
as §7, §8

NK activity = NK activity (LDH released from YAC-1 cells after 4 h exposure to PBMC) in 5-FU immune-suppressed rats, Example 1; format: in vivo; settings: for NK activity: 5 days after TA1 treatment
Description: as §5, §6
as §2, with “(n=8):” for “(n=15):”, “minipump) • Low dose TA1, injected s.c. at 0.2 mg/Kg (with empty minipumps)” for “minipump)”
as §7, §8

IFN-γ = assay: cytokine expression in plasma by ELISA: IFN-γ, Example 2; format: in vivo, rats
Description: as §1, §2, §3, §4

IL-2 = assay: cytokine expression in plasma by ELISA: IL-2, Example 2; format: in vivo, rats; settings: for plasma level of IL-2: 14 days after TA1
Description: as §1, §2, §3, §4

[3] = observation of adverse events in treated rats; format: in vivo
Description: as §2

[4] = tested on: activated lymphocytes (CD25+CD3+); assay: activated lymphocytes (CD25+CD3+ by flow cytometry) in 5-FU immune-suppressed rats, Example 2; format: in vivo
Description: as §1, §2, §3, §4

[5] = continuous infusion 3.5 mg/Kg/5 days
[6] = one animal, high dose injection followed by infusion
[7] = continuous infusion by minipump 3.5 mg/Kg/5 days
[8] = high dose injected s.c. 3.5 mg/Kg
[9] = low dose injected s.c. 0.2 mg/Kg

O=c1[nH]cc(F)c(=O)[nH]1 [5-FU, 5-fluorouracil]
total lymphocytes (CD3+) after 5-FU (total lymphocytes (CD3+); 8 days after 100 μg/kg 5-FU, baseline 10,904±1,973): 1,740±560 cells/mm^3
number of granulocytes after 5-FU (granulocytes; 8 days after 100 μg/kg 5-FU, baseline 4,485±1,116): 1,249±432 cells/mm^3
T helper lymphocytes (CD3+CD4+) after 5-FU ([1]; 8 days after 100 μg/kg 5-FU, baseline 5,411±1,084): 1,710±449 cells/mm^3
total white blood cell count after 5-FU (total leukocyte number; 8 days after 100 mg/kg 5-FU, baseline 14,590±2,071): 2,597±582 cells/mm^3
activated lymphocytes (CD3+CD25+) after 5-FU ([2]; 8 days after 100 mg/kg 5-FU, baseline 65±21): 37±10 cells/mm^3
NK activity after 5-FU (NK activity; 8 days after 100 mg/kg 5-FU, baseline 42±5%): 9±2%

CC[C@H](C)[C@H](NC(=O)[C@H](CCC(=O)O)NC(=O)[C@H](CO)NC(=O)[C@H](CO)NC(=O)[C@@H](NC(=O)[C@H](CC(=O)O)NC(=O)[C@@H](NC(=O)[C@H](C)NC(=O)[C@H](C)NC(=O)[C@H](CC(=O)O)NC(=O)[C@H](CO)NC(C)=O)C(C)C)[C@@H](C)O)C(=O)N[C@H](C(=O)N[C@H](C(=O)N[C@@H](CCCCN)C(=O)N[C@@H](CC(=O)O)C(=O)N[C@@H](CC(C)C)C(=O)N[C@@H](CCCCN)C(=O)N[C@@H](CCC(=O)O)C(=O)N[C@@H](CCCCN)C(=O)N[C@@H](CCCCN)C(=O)N[C@@H](CCC(=O)O)C(=O)N[C@H](C(=O)N[C@H](C(=O)N[C@@H](CCC(=O)O)C(=O)N[C@@H](CCC(=O)O)C(=O)N[C@@H](C)C(=O)N[C@@H](CCC(=O)O)C(=O)N[C@@H](CC(N)=O)C(=O)O)C(C)C)C(C)C)[C@@H](C)O)[C@@H](C)O [TA1] (Ac-SDAAVDTSSEITTKDLKEKKEVVEEAEN-OH)
plasma level of IFN-γ (IFN-γ; TA1 by injection 3.5 mg/Kg s.c., 14 days after treatment): 10 ± 1 pg/mL
plasma level of IFN-γ (IFN-γ; continuous infusion 3.5 mg/Kg/5 days, 14 days after treatment): 14 ± 5 pg/mL
plasma level of IFN-γ (IFN-γ; one animal, both injection and continuous infusion, after 14 days): 45 pg/mL
plasma level of IFN-γ relative to other groups (IFN-γ; s.c. injected TA1 3.5 mg/Kg, 5 days after treatment): higher plasma levels of IFN-γ
time to recovery of total lymphocytes (CD3+) to baseline levels (total lymphocytes (CD3+); [5]): 5 days
levels of lymphocytes (total lymphocytes (CD3+); continuous infusion 3.5 mg/Kg/5 days, mean of other animals): 9,644±961 cells/mm^3
time to recovery of total lymphocytes (CD3+) to baseline levels (total lymphocytes (CD3+); injected TA1 3.5 mg/Kg s.c.): 14 days
levels of lymphocytes (total lymphocytes (CD3+); one animal, both injection and continuous infusion (3.5 mg/Kg each)): 9,765 cells/mm^3
plasma level of IL-2 (IL-2; [5]): 42 ± 7 pg/mL
plasma level of IL-2 (IL-2; injected TA1 3.5 mg/Kg s.c.): 21 ± 16 pg/mL
plasma level of IL-2 relative to other animals (IL-2; one animal, both injection and continuous infusion): even greater levels of both of the Th1 cytokines measured
number of granulocytes (granulocytes; TA1 by s.c. injection 3.5 mg/Kg, 5 days): 9,924±3,218 cells/mm^3
number of granulocytes (granulocytes; continuous infusion 3.5 mg/Kg/5 days, 5 days): 14,652±2,463 cells/mm^3
number of granulocytes relative to other groups (granulocytes; continuous infusion 3.5 mg/Kg/5 days, after 14 days): still the highest
number of granulocytes (granulocytes; one animal, both injection (3.5 mg/Kg) and continuous infusion (another 3.5 mg/Kg), after 5 days): 19,376 cells/mm^3
adverse events ([3]; doses of TA1 15 times higher than usual (one animal 30 times higher than usual)): No adverse events were observed
adverse events / condition of the animal ([3]; one animal, both injection (3.5 mg/Kg) and continuous infusion (another 3.5 mg/Kg)): healthy and vigorous, with no obvious adverse events
recovery of T helper cell levels ([1]; TA1 by either delivery method (injection or continuous infusion, 3.5 mg/Kg)): sufficient to return the levels of T helper cells to baseline
activated lymphocytes [4, 5]: 428±89 cells/mm^3
percentage of lymphocytes which were activated [4, 5]: 4 % of lymphocytes
activated lymphocytes [4, 6]: 976 cells/mm^3
percentage of lymphocytes which were activated [4, 6]: 10 % of lymphocytes
recovery of total white blood cell count (total leukocyte number; [7]): statistically significant and complete recovery to baseline levels after only 5 days
recovery of total white blood cell count (total leukocyte number; low or high dose TA1 by s.c. injection (0.2 or 3.5 mg/Kg)): trended towards a sooner increase in recovery compared to untreated animals
activated lymphocytes (CD3+CD25+) ([2]; continuous infusion 3.5 mg/Kg/5 days, 12 days after TA1 treatment): 422±105 cells/mm^3
activated lymphocytes (CD3+CD25+) ([2]; continuous infusion 3.5 mg/Kg/5 days, 20 days after TA1 treatment): 446±73 cells/mm^3
activated lymphocytes (CD3+CD25+) ([2]; high dose injected 3.5 mg/Kg, 12 days after TA1 treatment): 297±136 cells/mm^3
activated lymphocytes (CD3+CD25+) ([2]; high dose injected 3.5 mg/Kg, 20 days after TA1 treatment): 321±75 cells/mm^3
recovery of NK activity (NK activity; [7]): complete recovery of NK activity to baseline levels
NK activity (NK activity; continuous infusion by minipump 3.5 mg/Kg/5 days, baseline 42±5%): 32±4%
time to significant recovery of NK activity (NK activity; [8]): 5 days
NK activity (NK activity; [8]): 16±2%
time to significant recovery of NK activity (NK activity; [9]): 12 days
NK activity (NK activity; [9]): 12±3%
